Converted amounts (≈) assume the structure as drawn. Like-named read-outs stand apart in the source and are kept apart here.
Key:
[1] = set-up: species or system Dog (Canis familiaris)/Beagle; conditions: male, beagle, dog, in vivo, 20 mg/kg
Description: An in vivo dog study in beagles was carried out to determine the pharmacokinetic (PK) profile of Remdesivir following 1) a single intravenous (IV) infusion of a control formulation and 2) an oral (PO) dose of an Example pharmaceutical composition ES040-72 according to the present invention.
For both IV or oral (PO) administered doses, plasma samples were collected over a period of 48 hours. Further details of the plasma collection are detailed in Table 13.

[2] = system: SARS-CoV-2 infected cell lines; conditions: shown in the literature; cited from earlier work
[3] = not told; cited from earlier work
[4] = set-up: species or system Dog (Canis familiaris)/Beagle; conditions: dog, in vivo
Description: For both IV or oral (PO) administered doses, blood samples were collected to determine the presence of analytes in PBMCs. Further details are detailed in Table 14. [table]

[5] = in vivo, cited from earlier work
[6] = Remdesivir solubility in co-solvents; assay type: physicochemical
[7] = system: human hepatocytes; assay: In vitro metabolism study of Remdesivir with human hepatocytes; assay type: in vitro ADME
Description: The Relative abundance (%) of metabolites post-incubation of Remdesivir (10 μM) was determined after culture with human hepatocytes (1.3 million cells/mL).
Samples were analysed by ultra-high performance liquid chromatography tandem mass spectrometry (UHPLC-MS/MS) with a quadrople time of flight mass spectrometer, for acquisition of high-resolution accurate mass data, with electrospray ionization incorporating in-line UV detection with a photodiode array detector.

[8] = assay type: physicochemical
Description: In order to determine the stability of the prodrug Remdesivir at different pH, the stability of prodrug Remdesivir was tested over time at physiologically relevant pH of gastrointestinal media. The degradation of Remdesivir was determined by measuring the amount of unchanged Remdesivir using a suitable high pressure liquid chromatographic (HPLC) method and comparing the results against a pure reference sample of Remdesivir.

[9] = Dissolution and solubility study, Type II dissolution apparatus; assay type: physicochemical; conditions: drug substance powder in hard-gelatin capsule without excipients; 15 mg in 300 mL 0.4% Tween 80 in water, 100 rpm
Description: The solubility and/or dissolution of Remdesivir over time was determined for various pharmaceutical compositions using a Type II dissolution apparatus. The dissolution of the liquid formulation filled into hard-gelatin capsule and “as-is”, i.e. without being filled into the capsule shell were compared to the release of the non-formulated powder drug substance filled into the capsule, as well as the latter in combination with the solubilizing complexing agent, SBEβCD. The dissolution profiles were compared to that of acetaminophen drug substance filled into a hard-gelatin capsule. Acetaminophen has over 80% bioavailability in practice. […] At appropriate time intervals, about 1 mL aliquots of the dissolution media were withdrawn, filtered and tested using a high-pressure chromatographic assay method for Remdesivir. The area under the peak for the drug at the standard elution time was then compared against that of an external reference standard of Remdesivir to determine the concentration of dissolved Remdesivir at any given time.
Specifically, the Example formulation 1 (ES040-36) comprising Remdesivir was tested both as a solution added directly into the dissolution medium without being filled into a capsule shell to represent the release from an oral solution and also as filled into a hard-gelatin capsule. […]

[10] = physchem; assay type: physicochemical
Description: The solubility of Remdesivir was screened in a range of different acids to test the effect of pH and acidity on Remdesivir solubility.

[11] = in vivo, iv; cited from earlier work
[12] = physchem; assay type: physicochemical; conditions: aqueous with cosolvent or surfactant or cyclodextrin, read-out: Remdesivir Solubility

What does the source list for `N#C[C@@]1(c2ccc3c(N)ncnn23)O[C@H](CO)[C@@H](O)[C@H]1O` [GS-441524]?
AUCinf ([1]; iv): 22000 ± 1950 ng·h/mL; AUClast ([1]; iv): 19800 ± 2510 ng·h/mL; AUCinf ([1]; po): 21700 ± 2170 ng·h/mL; AUClast ([1]; po): 21500 ± 2100 ng·h/mL; in vitro activity against SARS-CoV-2 infected cell lines [2]: considerable in vitro activity; permeability through the intestinal membrane [3]: poor permeability; detection in PBMC cells [4]: detected; oral bioavailability ([5]; po): poor oral bioavailability

For `CC(=O)Nc1ccc(O)cc1` [Acetaminophen, acetaminophen], which bioavailability [5] is on record?
Its bioavailability is “over 80%”.

Which solubility ([6]; oil or lipid, Solubility) does the source give for `CCC(CC)COC(=O)[C@H](C)N[P@](=O)(OC[C@H]1O[C@@](C#N)(c2ccc3c(N)ncnn23)[C@H](O)[C@@H]1O)Oc1ccccc1` [Remdesivir] here?
The solubility was 15900 µg/mL (≈ 26400 µM).

And the solubility ([6]; organic solvent or mixture, solvent Span 80, read-out: Solubility)?
Its solubility is 300 µg/mL (≈ 498 µM).

And the “Relative abundance of analytes post-incubation with Remdesivir” value (from here on “Relative abundance”) ([7]; human, 2 h, 10 μM)?
Its value is 4.8%.

And the “Relative abundance” value ([7]; human, 6 h, 10 μM)?
Its value is 0.1%.

What about the “Relative abundance” value ([7]; human, 24 h, 10 μM) of the same compound?
Its value is 0.7%.

And the “stability / degradation of Remdesivir in solution” value [8]?
The value was “acceptable stability and minimal degradation”.

And the “dissolution of Remdesivir” value [9]?
The value was “very slow dissolution”.

What about the solubility ([10]; pH 0.5) of the same compound?
The solubility was 1690 µg/mL (≈ 2800 µM).

What about the solubility ([10]; pH 0.5, aqueous buffer, Solubility) of the same compound?
The solubility was 950 µg/mL (≈ 1580 µM).

What about the solubility ([10]; pH 0.98, simulated gastric fluid, Solubility) of the same compound?
Its solubility is 2490 µg/mL (≈ 4130 µM).

And the solubility ([10]; pH 1, aqueous buffer, Solubility)?
Its solubility is 640 µg/mL (≈ 1060 µM).

And the solubility ([10]; pH 1.38, simulated gastric fluid, Solubility)?
The solubility was 980 µg/mL (≈ 1630 µM).

And the solubility ([10]; pH 1.89, simulated gastric fluid, Solubility)?
The solubility was 340 µg/mL (≈ 564 µM).

What about the solubility ([10]; pH 2.91, aqueous buffer, Solubility) of the same compound?
The solubility was 5 µg/mL (≈ 8.3 µM).

And the solubility ([10]; pH 3.5, aqueous buffer, Solubility)?
Its solubility is 10 µg/mL (≈ 16.6 µM).

What about the solubility ([10]; pH 4.74, aqueous buffer, Solubility) of the same compound?
Its solubility is 1 µg/mL (≈ 1.66 µM).

What about the solubility ([10]; pH 6.18, aqueous buffer, Solubility) of the same compound?
The solubility was 0.9 µg/mL (≈ 1.49 µM).

What about the solubility ([10]; pH 6.72) of the same compound?
Its solubility is 0 µg/mL.

And the “plasma concentration relative to its own EC50” value [11]?
The value was “rapidly declines to well below its own EC50”.

What about the solubility ([12]; Kolliphor EL (Polyoxyl 35 Castor Oil, Cremophor) 0.10 % w/w in water) of the same compound?
The solubility was 20 µg/mL (≈ 33.2 µM).

And the solubility ([12]; Poloxamer P407 0.07 % w/w in water)?
Its solubility is 6 µg/mL (≈ 9.96 µM).

And the solubility ([12]; TWEEN 20 (Polysorbate 20) 0.16 % w/w in water)?
The solubility was 16 µg/mL (≈ 26.6 µM).

And the solubility ([12]; TWEEN 80 (Polysorbate 80) 0.30 % w/w in water)?
Its solubility is 33 µg/mL (≈ 54.8 µM).

Which “Relative abundance” value ([7]; 2 h, Remdesivir 10 μM, human hepatocytes 1.3 million cells/mL) does the source give for `C[C@H](NP(=O)(O)OC[C@H]1O[C@@](C#N)(c2ccc3c(N)ncnn23)[C@H](O)[C@@H]1O)C(=O)O` [GS-704277] here?
Its value is 0.0%.

What about the “Relative abundance” value ([7]; 6 h, Remdesivir 10 μM, human hepatocytes 1.3 million cells/mL) of the same compound?
Its value is 2.4%.

What about the “Relative abundance” value ([7]; 24 h, Remdesivir 10 μM, human hepatocytes 1.3 million cells/mL) of the same compound?
Its value is 2.2%.
